Reference: patent publication US6214856A, “Indolecarboxamides, pharmaceutical compositions and methods of inhibiting calpain” (SmithKline Beecham Corporation, priority 1999, dated 2001)

system: calpain; test: inhibition of calpain in vitro (rate of hydrolysis of synthetic fluorogenic substrates); assay type: biochemical; details: percent decrease in rate of substrate hydrolysis
Procedure: The assays were performed using synthetic fluorogenic substrates. Inhibition of enzyme activity was calculated on the percent decrease in the rate of substrate hydrolysis in the presence of inhibitor relative to the rate in its absence. IC50s (nM) were calculated.

IC50 [nM]	SMILES
135	COc1cc2cc(C(=O)N[C@H](C=O)Cc3ccccc3)[nH]c2cc1OCc1ccccc1 [Example 3, (S)-N-(1-formyl-2-phenylethyl)-5-methoxy-6-(phenylmethoxy)-2-indolecarboxamide]
600	COc1ccc2cc(C(=O)N[C@H](C=O)Cc3ccccc3)[nH]c2c1 [Example 7, (S)-N-(1-formyl-2-phenylethyl)-6-methoxy-2-indolecarboxamide]
600	O=C[C@H](Cc1ccccc1)NC(=O)c1cc2ccccc2[nH]1 [Example 2, (S)-N-(1-formyl-2-phenylethyl)-2-indolecarboxamide]
230	O=C[C@H](Cc1ccccc1)NC(=O)c1cc2cc(Br)ccc2[nH]1 [Example 4, (S)-5-bromo-N-(1-formyl-2-phenylethyl)-2-indolecarboxamide]

The next lines start with the compound.

SMILES	IC50 [nM]
O=C[C@H](Cc1ccccc1)NC(=O)c1cc2ccccc2n1Cc1ccccc1 [Example 6, (S)-N-(1-formyl-2-phenylethyl)-1-(phenylmethyl)-2-indolecarboxamide]	500
Cn1c(C(=O)N[C@H](C=O)Cc2ccccc2)cc2ccccc21 [Example 1, (S)-N-(1-formyl-2-phenylethyl)-1-methyl-2-indolecarboxamide]	500
Cc1c(C(=O)N[C@H](C=O)Cc2ccccc2)n(Cc2ccccc2)c2ccccc12 [Example 8, (S)-N-(1-formyl-2-phenylethyl)-3-methyl-1-(phenylmethyl)-2-indolecarboxamide]	30
CS(=O)(=O)n1c(C(=O)N[C@H](C=O)Cc2ccccc2)cc2ccccc21 [Example 5, (S)-N-(1-formyl-2-phenylethyl)-1-(methylsulfonyl)-2-indolecarboxamide]	600
